# In patent publication US8648211B2, “Surface-modifying silicone elastomers” (priority 2009, dated 2014):
# What was measured:
# Assay type in all cases: physicochemical
# [1] = Water wetting (contact angle, spreading) on surface-modified PDMS
# Protocol: (§1) ^1H NMR and ^13C NMR spectra were obtained on Bruker AC-200 (200-MHz) spectrometer. The molecular weight and mass spectra were determined on a Micromass Global Q-TOF Ultima (MALDI/CapLC-ESI Quadrupole Time of Flight) Mass Spectrometer. ATR-FTIR spectra were obtained on Bio-Rad FTS-40 (Fourier transform IR) spectrometer with an ATR accessory, on which a 45° rectangle ZnSe crystal was used. Surface water contact angle and surface tension were recorded using a Krüss V1.50 drop shape analyzer.
# (§2) The ability of water to wet out a variety of surface modified silicones was also established using the drop shape analyzer. […] Prior to each test, the coupons were thoroughly washed by DI water (FIG. 8).
# The magnitude of spreading of APS in water was examined, and water on APS tethered to silicone, but not yet considered is the rate of spreading: rapid rates of spreading are also emblematic of superwetters. The water spreading rate on APS-modified PDMS was calculated according to a literature method^26 where: spreading rate=dD/dt (1) and, spreading area=dΔS/dt, (2) wherein D is the diameter of water droplet, S is the surface area covered by water and t is the spreading time. […] That is, replacing a terminal alcohol, acetate, etc., on the PEG block with an allyl group leads only to subtle changes in wetting properties. The situation is quite different when the superwetter is tethered.
# [2] = Stability of aqueous surfactant solutions (decomposition in water)
# Source text: The durability and environmental stability of modified surfaces are factors to consider for their use in real applications. While silicones are normally very stable to degradation, provided that the conditions remain near neutrality, branched trisiloxanes are notoriously unstable to hydrolysis.^27 Superwetters are usually added to the agents to be dispersed and then used immediately in pH 7 buffers. […] However, it was possible that tethering the superwetter to a surface would change the hydrolytic susceptibility.
# [3] = Shelf-life of APS-modified PDMS stored in air, tested monthly over 5 months
# Source text: as §2
# The shelf-life of the tethered APS was also established by testing spreading behavior monthly over a period of 5 months: samples of APS-modified surfaces were stored without any special protection on the laboratory bench. Subtle changes were observed over time. While the final contact angle (approaching zero) of water droplets was still achieved after 5 months, spreading rates changed appreciably. Rather than two distinct spreading rates, the droplet would spread to a specific radius, stop for several (typically up to 10) seconds and then spread to a new larger radius. This start-stop-start-stop process was repeated up to about 8 times at which point the approximately 0° contact angle was achieved.
# [4] = Hydrolytic stability of APS-modified PDMS soaked in pH 4 and pH 10 solutions
# Protocol: as §2
# The hydrolytic stability of APS-modified PDMS elastomers was tested by soaking for extended periods of time in aqueous pH=4 and pH=10 solutions. […] However, while spreading is impeded after the surface is exposed to such conditions, the water contact angle can still decrease to 20° over 2-3 minutes. The tethered APS is thus more resistant to hydrolytic degradation than APS in solution. Further degradation while soaking the tethered APS in an aqueous solution occurred in the second week, after which no superspreading effect was observed: contact angles decreased only to about 60° over 1-2 minutes.
# [5] = Wetting of polystyrene by aqueous surfactant solutions (drop shape analyzer); settings: for surface area of drop versus buffer control on polystyrene: 0.1 wt % (0.2 wt %, 0.5 wt %) in phosphate buffer pH=7
# Protocol: as §1
# (§3) The ability of solutions of APS and related compounds to wet substrates was established using a drop shape analyzer. The contact angles and total spreading were established immediately after placing an aqueous drop volume ˜0.02 ml onto the surface of polystyrene (a new Petri dish) or a cleaned glass slide.
# (§4) The ability of APS to disperse an aqueous phosphate buffer solution (pH=7) was determined on both hydrophobic (polystyrene) and hydrophilic (glass) surfaces. […] By contrast, when 1.5 wt % APS was included in the buffer, the maximum wetting diameter area on polystyrene was close to 6.16 cm^2, close to 200 times the area of the original buffer solution. Thus, APS has characteristics of typical superwetters.
# [6] = Wetting of glass by aqueous surfactant solutions (drop shape analyzer); settings: 0.1 wt % (0.2 wt %, 0.5 wt %) in phosphate buffer pH=7
# Protocol: as §1, §3, §4
# [7] = 0.02 ml water on APS-modified silicone elastomer
# [8] = PDMS 1 wt % DC1107 grafted with 14.7 wt % APS, 0.02 ml water
substance,measurement,setting,value
Allyl PEO Siloxane [APS],"spreading rate of water droplet, first 3 seconds","[1]; 0.02 ml water on APS-modified PDMS (1 wt % DC1107, 14.7 wt % APS)",~1 mm s^−1
same,final area covered by water relative to original droplet size,[1]; [7],about 15 times
same,water contact angle within about 1 minute,[1]; [7],below 10 °
same,contact angle at the edge of the spread droplet when the drop ceases to migrate,[1]; APS-modified PDMS,~0 °
same,increase of water spreading area during first 3 seconds,[1]; [8],8 times
same,"spreading rate of water droplet, subsequent 30 seconds",[1]; [8],approximately 0.1 mm s^−1
same,water contact angle on APS-grafted silicone surfaces within one minute,"[1]; distilled water, in some cases, depends on surface coverage",nearly zero
same,Contact Angle (°),[1]; water droplets 0.02 ml on modified PDMS prepared with 1% DC1107,0 °
same,Wetting Diameter (mm),"[1]; water droplets 0.02 ml, initial radius ~1.0 mm, final diameter after 1 min, modified PDMS, 1% DC1107",8 mm
same,stability of aqueous solution,[2],decomposed in water over a few days to a week
same,final water contact angle after 5 months,[3]; APS-modified surface stored on the laboratory bench,approximately 0 °
same,time surface remained superhydrophilic,"[3]; APS-modified surface, storage in air",at least 5 months
same,"water contact angle after soaking, second week","[4]; APS-modified PDMS soaked in aqueous solution, reached over 1-2 minutes, no superspreading",about 60 °
same,"water contact angle after soaking, first week","[4]; APS-modified PDMS soaked in pH=4 and pH=10 solutions, reached over 2-3 minutes",20 °
same,area of one drop after spreading,"[5]; 1 wt % aqueous solution, from 0.03 cm^2, in 5 seconds, surface not stated, data not shown",4.91 cm^2
same,maximum wetting diameter area on polystyrene,"[5]; 1.5 wt % in aqueous phosphate buffer pH=7, 5 μl buffer control 0.031 cm^2",~6.16 cm^2
same,wetting area relative to the area of the original buffer solution,"[5]; 1.5 wt % in phosphate buffer pH=7, polystyrene",~200 times
same,spreading of aqueous solutions compared with commercial superwetter L77,"[5]; degree and velocity of spreading, surface not stated",approximately the same degree and at a similar velocity to the commercial superwetter L77
Diallyl-Terminated PEO [DAP],surface area of drop versus buffer control on glass,[6],only marginally larger surface areas
same,superwetting properties of compound or compound-modified surfaces,[1]; in aqueous solution and grafted to PDMS,do not have superwetting properties
same,lowest contact angle of grafted PDMS,"[1]; pure DAP grafted to PDMS at 10, 20, 50% in THF",80 °
same,surface area of drop versus buffer control on polystyrene,[5],only marginally larger surface areas
bis-heptamethyltrisiloxanyl-PEG [SiPS],surface area of drop versus buffer control on glass,[6],only marginally larger surface areas
same,surface area of drop versus buffer control on polystyrene,[5],only marginally larger surface areas
